Results reported in ChEMBL document CHEMBL1781881, “Adenosine-derived inhibitors of 78 kDa glucose regulated protein (Grp78) ATPase: insights into isoform selectivity” (J Med Chem, 2011).
pKi: −log10 of the molar value.

Assays:
[1] = Inhibition of HSP70 by fluorescence polarization assay
[2] = test system: HCT-116; assay: Antiproliferative activity against human HCT116 cells; type: functional

Row | pKi [1] | GI50 [2] | SMILES
1 | 5.36 |  | Nc1ncnc2c1nc(NCc1ccc3ccccc3n1)n2[C@@H]1O[C@H](CO)[C@@H](O)[C@H]1O
2 | 5.96 |  | CNc1nc2c(N)ncnc2n1[C@@H]1O[C@H](COCc2ccccc2)[C@@H](O)[C@H]1O
3 | 5.39 |  | CNc1nc2c(N)ncnc2n1[C@@H]1O[C@H](COCC2CCCCC2)[C@@H](O)[C@H]1O
4 | 6.35 |  | CNc1nc2c(N)ncnc2n1[C@@H]1O[C@H](COCc2cccnc2)[C@@H](O)[C@H]1O
5 | 5.08 |  | CNc1nc2c(N)ncnc2n1[C@@H]1O[C@H](CO)[C@@H](O)[C@H]1O
6 | 6.51 | > 80 µM | N#Cc1ccc(COC[C@H]2O[C@@H](n3c(NCc4ccc5ncccc5c4)nc4c(N)ncnc43)[C@H](O)[C@@H]2O)cc1
7 | 6.92 | 5 µM | N#Cc1ccc(COC[C@H]2O[C@@H](n3c(NCc4ccc(Cl)c(Cl)c4)nc4c(N)ncnc43)[C@H](O)[C@@H]2O)cc1
8 | 5.84 |  | COC[C@H]1O[C@@H](n2c(NCc3ccc(Cl)c(Cl)c3)nc3c(N)ncnc32)[C@H](O)[C@@H]1O
9 | 5.89 | > 80 µM | Nc1ncnc2c1nc(NCc1ccc3ncccc3c1)n2[C@@H]1O[C@H](CO)[C@@H](O)[C@H]1O
10 | 5.37 | 26 µM | Nc1ncnc2c1nc(NCc1ccc(Cl)c(Cl)c1)n2[C@@H]1O[C@H](CO)[C@@H](O)[C@H]1O
11 | 5.98 |  | Nc1ncnc2c1nc(NCc1ccc(Cl)c(Cl)c1)n2[C@@H]1O[C@H](COCc2ccccc2)[C@@H](O)[C@H]1O
12 | 6.96 |  | Nc1ncnc2c1ncn2[C@@H]1O[C@H](COP(=O)(O)OP(=O)(O)O)[C@@H](O)[C@H]1O [ADENOSINE DIPHOSPHATE]

Row | SMILES | pKi [1] | GI50 [2]
13 | Nc1ncnc2c1nc(N)n2[C@@H]1O[C@H](CO)[C@@H](O)[C@H]1O | 5.35 | 0.05 µM
